Laboratory results as given in patent publication US20240262830A1, “IRE1A MODULATORS AND USES THEREOF” (Nimbus Iaso, Inc., priority 2020, published 2024).

Tests used:
[1] = biological target: T1, truncated human IRE1a WT protein, containing the catalytic part (aa 547-977) (Homo sapiens, UniProt O75460); assay: IRE1a biochemical enzyme splice assay; conditions: 20 nM protein, 500 nM fluorescently quenched IRE1a substrate, 40 min at room temperature; read-out: EnzymeSplice_hIRE1a_IC50 (IC50)
T1 construct: containing the catalytic part (aa 547-977); made in house
T1 sequence (O75460 547-977): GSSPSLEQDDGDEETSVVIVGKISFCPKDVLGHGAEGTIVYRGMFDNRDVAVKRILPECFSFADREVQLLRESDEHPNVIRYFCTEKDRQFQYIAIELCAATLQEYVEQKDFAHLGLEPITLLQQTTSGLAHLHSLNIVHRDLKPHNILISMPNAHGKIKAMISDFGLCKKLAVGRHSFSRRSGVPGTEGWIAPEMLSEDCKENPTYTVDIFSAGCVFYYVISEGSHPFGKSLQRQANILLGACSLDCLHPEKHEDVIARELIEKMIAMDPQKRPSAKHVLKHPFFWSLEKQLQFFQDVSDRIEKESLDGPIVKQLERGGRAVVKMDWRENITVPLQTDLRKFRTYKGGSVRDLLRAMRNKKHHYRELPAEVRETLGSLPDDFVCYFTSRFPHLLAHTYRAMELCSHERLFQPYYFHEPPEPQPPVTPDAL
Experimental: A truncated human IRE1a WT protein, containing the catalytic part (aa 547-977) was expressed in baculovirus. The purified protein (20 nM) was incubated with a fluorescently quenched IRE1a substrate (500 nM; 5′/6-FAM-CAGUCCGCAGCACUG-BHQ-1/3′) and a titration of inhibitor, starting at 10 μM (final DMSO concentration=1%) for 40 min at room temperature in assay buffer. Reactions were carried out in a final volume of […] in a 384 well assay plate. The reaction was stopped, and the plate was spun for 1 minute at 1000 rpm. The fluorescence intensity of the IRE1a-substrate was measured using an fluorescent plate reader (Ex 485 nm/Em 535 nm, Perkin Elmer Envision).

hIRE1a = assay: XBP1-Luc cell assay; type: cell-based; conditions: Homo sapiens; HEK293-pLVX-XBP1.fluc-IRES-Puro cells, 600 nM Thapsigargin 1 hour, then inhibitor 6 hours; read-out: fLuc_XBP1_hIRE1a_HEK293_IC50 (IC50)
Experimental: HEK293-pLVX-XBP1.fluc-IRES-Puro cells (ChemPartner) were collected into DMEM (Invitrogen, 11995-065) with 10% FBS (BI, 04-002-1A). Cells were seeded at 1.5E4 cells/well in BioCoat Poly-D-Lysine Black/Clear flat bottom 96 well plate (Corning, 356640) and incubated overnight at 37° C. and 5% CO2. Cells were treated with 600 nM Thapsigargin (Sigma, T9033) for 1 hour at 37° C. and 5% CO2 prior to inhibitor addition. A titration of inhibitor, starting at 30 μM was added to wells for an additional 6 hours at 37° C. and 5% CO2. 100 μl of Steady-Glo Luciferase assay reagent (Promega, E2550) was added to plate and the plate was shaken for 2 minutes. Signal was read using EnSpire (Perkin Elmer).

Compound | IC50 [1] | IC50 (hIRE1a)
CCc1cc(-c2ccc3c(NC(=O)NC4CC4)ncnn23)cc2cnc(NC3CCCNC3)nc12 (stereo in doubt) [Compound I-24, 3-cyclopropyl-1-(7-{8-ethyl-2-[(3R)-piperidin-3-ylamino]quinazolin-6-yl}pyrrolo[2,1-f][1,2,4]triazin-4-yl)urea] | 0.1 to 1 µM | < 1 µM
CCc1cc(-c2ccc3c(NS(=O)(=O)c4ccccc4F)ncnn23)cc2cnc(N[C@H]3CCCNC3)nc12 [Compound I-1, (S)—N-(7-(8-ethyl-2-(piperidin-3-ylamino)quinazolin-6-yl)pyrrolo[2,1-f][1,2,4]triazin-4-yl)-2-fluorobenzenesulfonamide] | < 0.1 µM | < 1 µM
CCc1cc(-c2ccc3c(NS(=O)(=O)c4ccccc4C)ncnn23)cc2cnc(N[C@H]3CCCNC3)nc12 [Compound I-2, (S)—N-(7-(8-ethyl-2-(piperidin-3-ylamino)quinazolin-6-yl)pyrrolo[2,1-f][1,2,4]triazin-4-yl)-2-methylbenzenesulfonamide] | < 0.1 µM | < 1 µM
CCc1cc(-c2ccc3c(NS(=O)(=O)C4CCCCC4)ncnn23)cc2cnc(N[C@H]3CCCNC3)nc12 [Compound I-3, (S)—N-(7-(8-ethyl-2-(piperidin-3-ylamino)quinazolin-6-yl)pyrrolo[2,1-f][1,2,4]triazin-4-yl)cyclohexanesulfonamide] | < 0.1 µM | < 1 µM
CCc1cc(-c2ccc3c(NS(=O)(=O)c4ccccc4Cl)ncnn23)cc2cnc(N[C@H]3CCCC[C@@H]3O)nc12 [Compound I-4, 2-chloro-N-(7-(8-ethyl-2-(((1S,2S)-2-hydroxycyclohexyl)amino)quinazolin-6-yl)pyrrolo[2,1-f][1,2,4]triazin-4-yl)benzenesulfonamide] | 0.1 to 1 µM | > 10 µM
CCc1cc(-c2ccc3c(NS(=O)(=O)c4ccc(OC(F)F)cc4)ncnn23)cc2cnc(N[C@H]3CCCNC3)nc12 [Compound I-5, (S)-4-(difluoromethoxy)-N-(7-(8-ethyl-2-(piperidin-3-ylamino)quinazolin-6-yl)pyrrolo[2,1-f][1,2,4]triazin-4-yl)benzenesulfonamide] | < 0.1 µM | 1 to 10 µM
CCc1cc(-c2cnc3c(NS(=O)(=O)c4ccccc4Cl)nccn23)cc2cnc(N[C@H]3CCCNC3)nc12 [Compound I-6, (S)-2-chloro-N-(3-(8-ethyl-2-(piperidin-3-ylamino)quinazolin-6-yl)imidazo[1,2-a]pyrazin-8-yl)benzenesulfonamide] | < 0.1 µM | < 1 µM
CCc1cc(-c2ccc3c(NS(=O)(=O)Cc4ccccc4)ncnn23)cc2cnc(N[C@H]3CCCNC3)nc12 [Compound I-7, (S)—N-(7-(8-ethyl-2-(piperidin-3-ylamino)quinazolin-6-yl)pyrrolo[2,1-f][1,2,4]triazin-4-yl)-1-phenylmethanesulfonamide] | < 0.1 µM | < 1 µM
CCc1cc(-c2ccc3c(NS(=O)(=O)c4ccccc4Cl)ncnn23)cc2cnc(NC[C@H]3CCCNC3)nc12 [Compound I-8, (S)-2-chloro-N-(7-(8-ethyl-2-((piperidin-3-ylmethyl)amino)quinazolin-6-yl)pyrrolo[2,1-f][1,2,4]triazin-4-yl)benzenesulfonamide] | < 0.1 µM | 1 to 10 µM
CCc1cc(-c2ccc3c(NS(=O)(=O)CCC(F)(F)F)ncnn23)cc2cnc(N[C@H]3CCCNC3)nc12 [Compound I-9, (S)—N-(7-(8-ethyl-2-(piperidin-3-ylamino)quinazolin-6-yl)pyrrolo[2,1-f][1,2,4]triazin-4-yl)-3,3,3-trifluoropropane-1-sulfonamide] | < 0.1 µM | 1 to 10 µM
CCc1cc(-c2ccc3c(NS(=O)(=O)c4ccccc4Cl)ncnn23)cc2cnc(N[C@H]3CCCC[C@H]3O)nc12 [Compound I-10, 2-chloro-N-(7-(8-ethyl-2-(((1S,2R)-2-hydroxycyclohexyl)amino)quinazolin-6-yl)pyrrolo[2,1-f][1,2,4]triazin-4-yl)benzenesulfonamide] | > 1 µM | 
CCc1cc(-c2ccc3c(NS(=O)(=O)c4ccccc4Cl)ncnn23)cc2cnc(N[C@H]3CCNC3)nc12 [Compound I-11, (S)-2-chloro-N-(7-(8-ethyl-2-(pyrrolidin-3-ylamino)quinazolin-6-yl)pyrrolo[2,1-f][1,2,4]triazin-4-yl)benzenesulfonamide] | < 0.1 µM | 1 to 10 µM
CCc1cc(-c2ccc3c(NS(=O)(=O)c4ccccc4Cl)ncnn23)cc2cnc(N[C@H]3CCCCNC3)nc12 [Compound I-12, (S)—N-(7-(2-(azepan-3-ylamino)-8-ethylquinazolin-6-yl)pyrrolo[2,1-f][1,2,4]triazin-4-yl)-2-chlorobenzenesulfonamide] | < 0.1 µM | < 1 µM
CCc1cc(-c2ccc3c(NS(=O)(=O)c4ccccc4Cl)ncnn23)cc2cnc(N[C@H]3CCCC[C@@H]3N)nc12 [Compound I-13, N-(7-(2-(((1S,2S)-2-aminocyclohexyl)amino)-8-ethylquinazolin-6-yl)pyrrolo[2,1-f][1,2,4]triazin-4-yl)-2-chlorobenzenesulfonamide] | > 1 µM | 
CCc1cc(-c2ccc3c(NS(=O)(=O)c4ccccc4Cl)ncnn23)cc2cnc(N[C@H]3CC[C@H](O)C3)nc12 [Compound I-14, 2-chloro-N-(7-(8-ethyl-2-(((1S,3S)-3-hydroxycyclopentyl)amino)quinazolin-6-yl)pyrrolo[2,1-f][1,2,4]triazin-4-yl)benzenesulfonamide] | < 0.1 µM | > 10 µM
CCc1cc(-c2ccc3c(NS(=O)(=O)C4CCCC4)ncnn23)cc2cnc(N[C@H]3CCCNC3)nc12 [Compound I-15, (S)—N-(7-(8-ethyl-2-(piperidin-3-ylamino)quinazolin-6-yl)pyrrolo[2,1-f][1,2,4]triazin-4-yl)cyclopentanesulfonamide] | < 0.1 µM | < 1 µM
CCc1cc(-c2ccc3c(NS(=O)(=O)c4ccccc4Cl)ncnn23)cc2cnc(NC[C@@H]3CCCNC3)nc12 [Compound I-17, (R)-2-chloro-N-(7-(8-ethyl-2-((piperidin-3-ylmethyl)amino)quinazolin-6-yl)pyrrolo[2,1-f][1,2,4]triazin-4-yl)benzenesulfonamide] | 0.1 to 1 µM | > 10 µM
CCc1cc(-c2ccc3c(NS(=O)(=O)c4ccccc4Cl)ncnn23)cc2cnc(NC[C@@H]3CCCCN3)nc12 [Compound I-18, (S)-2-chloro-N-(7-(8-ethyl-2-((piperidin-2-ylmethyl)amino)quinazolin-6-yl)pyrrolo[2,1-f][1,2,4]triazin-4-yl)benzenesulfonamide] | 0.1 to 1 µM | > 10 µM
CCc1cc(-c2n[nH]c3c(NS(=O)(=O)c4ccccc4Cl)cccc23)cc2cnc(N[C@H]3CCCNC3)nc12 [Compound I-19, (S)-2-chloro-N-(3-(8-ethyl-2-(piperidin-3-ylamino)quinazolin-6-yl)-1H-indazol-7-yl)benzenesulfonamide] | < 0.1 µM | < 1 µM
CCc1cc(-c2ccc3c(NS(=O)(=O)c4ccc(C(F)(F)F)cc4Cl)ncnn23)cc2cnc(N[C@H]3CCCNC3)nc12 [Compound I-34, (S)-2-chloro-N-(7-(8-ethyl-2-(piperidin-3-ylamino)quinazolin-6-yl)pyrrolo[2,1-f][1,2,4]triazin-4-yl)-4-(trifluoromethyl)benzenesulfonamide] | > 1 µM | 
